As usually defined, the inhibition is the change of the read-out against control, counted positive when it falls. Lower therefore signals a response near the control.

Consider one molecule from publication PMC7979765, “trans-Translation inhibitors bind to a novel site on the ribosome and clear Neisseria gonorrhoeae in vivo” (Nature Communications, 2021).

Structures are written as SMILES.

For one data set, the target named is T1, Histamine H1 (Homo sapiens, UniProt P35367).
T1 construct: purchased Eurofins Discovery Services (Panlabs safety panel)
T1 sequence (P35367 whole entry): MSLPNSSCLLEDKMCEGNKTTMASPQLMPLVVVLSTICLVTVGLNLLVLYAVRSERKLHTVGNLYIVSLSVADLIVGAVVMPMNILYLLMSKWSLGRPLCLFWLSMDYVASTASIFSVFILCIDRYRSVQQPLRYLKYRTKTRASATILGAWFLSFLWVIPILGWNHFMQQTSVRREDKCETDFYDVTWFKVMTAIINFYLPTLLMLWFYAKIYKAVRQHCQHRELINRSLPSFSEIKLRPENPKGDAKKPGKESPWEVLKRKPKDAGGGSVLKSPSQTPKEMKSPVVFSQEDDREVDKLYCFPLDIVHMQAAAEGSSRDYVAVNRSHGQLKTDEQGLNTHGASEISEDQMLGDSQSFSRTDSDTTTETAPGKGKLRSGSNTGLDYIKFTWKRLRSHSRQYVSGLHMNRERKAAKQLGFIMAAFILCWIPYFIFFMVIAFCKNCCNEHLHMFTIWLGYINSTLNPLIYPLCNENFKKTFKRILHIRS
As to the kind of experiment: Receptor Profiling 239610. The format is binding. The protocol: (§1) Several in vitro selectivity assays were performed at Eurofins Discovery Services using established methods and controls that behaved as expected (Supplementary Tables 5 and 6). […] For receptor panel profiling, MBX-4132 was evaluated at 10 μM and activity of >50% (agonist or antagonist; note that negative % inhibition indicates agonism) was scored as active.

A short description of data set [1]: Liver microsome stability, rat. The format is in vitro ADME. The protocol: To examine potential for first-pass metabolism of analogs in the liver, the stability of analogs in the presence of liver microsome preparations (Eurofins Discovery for human, dog and rat; Xenotech for mouse) was measured using the method of Kuhnz, et al.[50]. for murine studies and Oback for the dog, human and rat studies. The amount of parent compound remaining after incubation with microsomes in the presence of NADPH over a 30 min time range was measured using a reverse-phase liquid chromatography/mass spectroscopy method that was customized for each compound. Half-lives were calculated using linear regression analysis of several time points.
A general note: Liver microsomes are a subcellular fraction often used to study metabolism.

The target in a further data set is T2, Adrenergic α1A (Homo sapiens, UniProt P35348).
T2 construct: purchased Eurofins Discovery Services (Panlabs safety panel)
T2 sequence (P35348 whole entry): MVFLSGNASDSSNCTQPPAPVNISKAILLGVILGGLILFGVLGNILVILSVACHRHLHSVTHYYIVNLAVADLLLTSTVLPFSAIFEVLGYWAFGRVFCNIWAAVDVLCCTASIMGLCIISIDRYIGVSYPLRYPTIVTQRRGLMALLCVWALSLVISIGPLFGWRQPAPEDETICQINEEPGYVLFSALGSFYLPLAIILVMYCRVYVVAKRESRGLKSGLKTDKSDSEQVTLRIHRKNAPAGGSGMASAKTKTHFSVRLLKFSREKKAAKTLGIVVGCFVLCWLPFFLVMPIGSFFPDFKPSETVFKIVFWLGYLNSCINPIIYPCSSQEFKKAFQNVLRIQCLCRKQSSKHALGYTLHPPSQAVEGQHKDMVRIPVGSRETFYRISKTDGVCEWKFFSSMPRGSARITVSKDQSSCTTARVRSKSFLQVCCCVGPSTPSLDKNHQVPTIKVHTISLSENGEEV
As to the kind of experiment: Receptor Profiling 203110. The data set is classed as binding. The protocol: as §1

A further data set concerns the target T3, CYP2C8 (Homo sapiens, UniProt P10632).
T3 construct: Eurofins Discovery Services (contract assay) 4879
In words: Cyp inhibition assay 4879. The format is in vitro ADME. To be noted: catalog reference 4879, read-out: pIC50 (µM) reported (converted). The protocol: as §1

For data set [2], the target named is T4, Serotonin (5-hydroxytryptamine) 5-HT3 (Homo sapiens, UniProt P46098).
T4 construct: Eurofins Discovery Services (contract assay) 271910
T4 sequence (P46098 24-478): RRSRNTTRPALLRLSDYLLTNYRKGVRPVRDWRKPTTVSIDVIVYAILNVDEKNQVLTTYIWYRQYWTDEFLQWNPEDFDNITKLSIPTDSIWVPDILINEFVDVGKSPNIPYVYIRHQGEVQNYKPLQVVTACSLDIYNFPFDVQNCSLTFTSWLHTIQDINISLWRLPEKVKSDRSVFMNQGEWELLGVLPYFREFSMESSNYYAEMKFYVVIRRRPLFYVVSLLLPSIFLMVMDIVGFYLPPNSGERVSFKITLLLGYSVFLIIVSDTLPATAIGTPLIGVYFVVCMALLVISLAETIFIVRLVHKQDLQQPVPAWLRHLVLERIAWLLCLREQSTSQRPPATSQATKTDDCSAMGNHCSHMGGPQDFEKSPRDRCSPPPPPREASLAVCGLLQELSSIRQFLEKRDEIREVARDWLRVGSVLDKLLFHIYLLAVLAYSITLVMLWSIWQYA
As to the kind of experiment: Receptor Profiling 271910. The format is binding. The protocol: as §1

The next data set has as its target T5, hERG potassium channel (Homo sapiens, UniProt Q12809).
T5 construct: purchased Eurofins Discovery Services (Panlabs safety panel)
In words: Receptor Profiling 265910. To be noted: probe [3H]dofetilide. The format is binding. The protocol: as §1

T5 sequence (Q12809 whole entry): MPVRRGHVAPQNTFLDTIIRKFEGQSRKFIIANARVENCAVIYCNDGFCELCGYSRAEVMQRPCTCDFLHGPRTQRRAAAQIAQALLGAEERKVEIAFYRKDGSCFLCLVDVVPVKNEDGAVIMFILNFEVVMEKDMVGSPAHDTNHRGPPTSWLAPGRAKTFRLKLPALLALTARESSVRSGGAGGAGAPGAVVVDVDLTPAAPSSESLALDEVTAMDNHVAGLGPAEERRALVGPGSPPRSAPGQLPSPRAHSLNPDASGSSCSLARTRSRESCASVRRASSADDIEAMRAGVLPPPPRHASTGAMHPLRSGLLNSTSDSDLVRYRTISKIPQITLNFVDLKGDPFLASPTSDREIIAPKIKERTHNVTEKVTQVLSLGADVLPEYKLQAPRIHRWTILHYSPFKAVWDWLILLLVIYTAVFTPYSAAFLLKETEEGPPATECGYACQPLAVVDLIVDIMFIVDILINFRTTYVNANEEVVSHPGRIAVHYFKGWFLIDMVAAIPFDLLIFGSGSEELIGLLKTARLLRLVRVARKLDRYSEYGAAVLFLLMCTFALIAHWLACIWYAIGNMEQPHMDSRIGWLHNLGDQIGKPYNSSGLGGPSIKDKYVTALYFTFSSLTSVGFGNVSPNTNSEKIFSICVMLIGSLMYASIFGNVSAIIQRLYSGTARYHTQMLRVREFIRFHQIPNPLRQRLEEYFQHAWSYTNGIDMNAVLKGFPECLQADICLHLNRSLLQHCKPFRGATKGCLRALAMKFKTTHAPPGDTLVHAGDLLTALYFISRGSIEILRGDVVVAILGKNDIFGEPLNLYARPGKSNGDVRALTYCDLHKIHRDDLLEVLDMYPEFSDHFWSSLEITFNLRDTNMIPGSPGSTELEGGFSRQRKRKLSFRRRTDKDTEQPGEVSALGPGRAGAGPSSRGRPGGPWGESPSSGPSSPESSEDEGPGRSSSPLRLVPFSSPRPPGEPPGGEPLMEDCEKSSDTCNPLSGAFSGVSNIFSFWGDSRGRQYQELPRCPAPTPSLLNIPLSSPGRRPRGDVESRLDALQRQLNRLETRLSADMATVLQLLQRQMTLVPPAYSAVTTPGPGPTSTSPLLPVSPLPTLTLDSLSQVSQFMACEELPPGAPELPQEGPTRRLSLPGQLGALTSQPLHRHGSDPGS
T3 sequence (P10632 whole entry): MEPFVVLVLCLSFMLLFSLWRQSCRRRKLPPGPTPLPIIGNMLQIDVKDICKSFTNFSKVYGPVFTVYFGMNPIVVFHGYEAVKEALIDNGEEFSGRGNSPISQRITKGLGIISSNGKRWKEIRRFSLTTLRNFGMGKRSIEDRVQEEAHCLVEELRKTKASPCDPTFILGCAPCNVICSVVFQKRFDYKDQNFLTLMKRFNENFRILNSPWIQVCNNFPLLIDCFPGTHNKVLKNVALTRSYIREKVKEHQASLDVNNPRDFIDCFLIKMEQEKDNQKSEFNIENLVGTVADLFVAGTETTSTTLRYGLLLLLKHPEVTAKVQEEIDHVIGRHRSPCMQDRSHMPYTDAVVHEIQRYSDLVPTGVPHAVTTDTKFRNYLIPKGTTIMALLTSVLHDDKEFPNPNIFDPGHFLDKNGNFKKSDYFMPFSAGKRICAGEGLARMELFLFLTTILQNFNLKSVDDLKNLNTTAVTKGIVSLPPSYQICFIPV

For the molecule `O=C(Nc1nnc(-c2ccc(F)cc2)o1)N1CCc2ccccc2C1` [MBX-4132], the inhibition at 10 µM on Histamine H1 was determined as 11%; against Adrenergic α1A, 6%; in data set [2], 4%; at hERG potassium channel, 27%. The “Microsomal stability (t½, min) Rat” value in data set [1] (Reported value, Eurofins) is reported as above 120 min. Also, in data set [1] (rat, liver microsomes, read-out: Microsomal Stability (t1/2; min) Rat), the half-life is above 2 h. Moreover, the IC50 on CYP2C8 was above 100 µM.
